We go through one molecule from patent publication US20150025143A1, “BETA-HYDROXY-BETA-METHYLBUTYRIC ACID FOR IMPROVING GLUCOSE TOLERANCE” (ABBOTT LABORATORIES, priority 2012, published 2015).

The subject of test [1] is Spragley-Dawley (SD) rats. Put plainly: effect of an acute oral dose given before a glucose load on the blood glucose spike (lowering glycemic index). It is filed as in vivo. As to conditions: given 30 minutes before glucose load of approximately 2 g/kg, FIG. 2. On the procedure: In this Example, the effect of calcium HMB on lowering glycemic index was evaluated in an in vivo study. Particularly, an acute oral dose of calcium HMB was evaluated to determine whether, if given prior to a glucose load, the dose was able to blunt the initial glucose spike.
Spragley-Dawley (SD) rats (21 days post weaning) (n=7 or 8) were fed an oral dose of calcium HMB at a concentration of: 100 mg/kg (mpk), 300 mpk or 1000 mpk. After thirty minutes, the rats were then orally fed a glucose load consisting of a glucose solution having a concentration of approximately 2 g/kg body weight. A control group (n=4) was not fed the oral dose of calcium HMB prior to the glucose load.
Blood glucose levels of the rats were measured by tail snip using one-touch ultra Glucometer and glucose strips at different time points (0, 15, 30, 45, 60, 90, and 120 minutes).

The next test concerns C57BL/6J mice. Put plainly: oral glucose tolerance after nine weeks of supplemented feeding and exercise. It is filed as in vivo. As to conditions: 3.4 mg/g of pediatric nutritional supplement, fed nine weeks with exercise; oral glucose 2 g/Kg; compared to rodent pellet feed control, pediatric nutritional supplement control and both leucine groups (5 and 10 mg/g); FIG. 1. On the procedure:
In this Example, the effect of (1) HMB and (2) leucine on muscle glucose tolerance was analyzed in an in vivo study.
C57BL/6J mice (Charles River Laboratories, Wilmington Mass.), 21 days post-weaning, were fed either a commercially available pediatric nutritional supplement supplemented with either (1) calcium HMB or (2) leucine, and required to exercise, for nine weeks. […]
Following the nine weeks, the mice were kept overnight for fasting and body weight was recorded. […] Before glucose administration, the blood glucose was measured by tail snip using one-touch ultra Glucometer and glucose strips.
All test groups were orally administered the glucose solution at a concentration of 2 g/Kg body weight. […] After oral glucose administration, blood glucose levels were analyzed at different time points (i.e., 15, 30, 60, 90, and 120 minutes) using Glucometer and glucose strips.

SMILES strings stand for the structures.

With `CC(C)(O)CC(=O)O.[Ca]` [Calcium HMB, calcium beta-hydroxy-beta-methylbutyric acid], the “glucose spike at 15 minutes post dosing” value in test [1] (1000 mpk oral) is on record as “significantly reduced glucose spike”. Besides, the “glucose spike at early time points” value in test [1] (high oral doses) was “significantly blunted glucose spike”. In addition, in the test with C57BL/6J mice, the “glucose tolerance (blood glucose after oral glucose administration)” value was “improved glucose tolerance”.
